According to patent publication US12590092B2, “Antiviral agents and uses thereof” (GRIFFITH UNIVERSITY, priority 2021, dated 2026):
Read-outs that look alike come from different tables or passages of the source.

How the values were obtained:
[1] = target: hPIV-3 C243 HN (neuraminidase function) (UniProt P08492, species not given/STRAIN_C243); assay: Neuraminidase inhibition assay (MUN), hPIV-3 C243; assay type: biochemical, hPIV-3 (strain C-243); settings: pH 4.6
[2] = target: hPIV-3 CI002 HN (neuraminidase function) (UniProt P08492, species not given/STRAIN_CI002); assay: Neuraminidase inhibition assay (MUN), hPIV-3 CI002; assay type: biochemical, hPIV-3 (strain CI002, clinical isolate); settings: pH 4.6
Sequence of hPIV-3 CI002 HN (neuraminidase function) (P08492 whole entry, change not shown): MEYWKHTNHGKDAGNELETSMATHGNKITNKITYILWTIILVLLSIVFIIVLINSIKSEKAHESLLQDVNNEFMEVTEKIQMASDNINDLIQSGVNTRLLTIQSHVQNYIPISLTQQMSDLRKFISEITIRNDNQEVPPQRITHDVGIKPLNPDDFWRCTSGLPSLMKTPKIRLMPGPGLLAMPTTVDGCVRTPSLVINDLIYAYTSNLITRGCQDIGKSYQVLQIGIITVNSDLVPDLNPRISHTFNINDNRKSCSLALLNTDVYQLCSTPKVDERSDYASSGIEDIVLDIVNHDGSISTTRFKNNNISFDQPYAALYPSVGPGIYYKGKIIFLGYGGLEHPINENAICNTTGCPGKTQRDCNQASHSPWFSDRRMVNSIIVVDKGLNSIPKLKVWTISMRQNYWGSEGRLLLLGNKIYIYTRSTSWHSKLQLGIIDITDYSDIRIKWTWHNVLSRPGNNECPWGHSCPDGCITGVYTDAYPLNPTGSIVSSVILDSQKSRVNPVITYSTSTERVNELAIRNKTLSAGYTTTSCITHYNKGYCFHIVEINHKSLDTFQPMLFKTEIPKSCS

[3] = target: hPIV-3 C243 HN (haemagglutination function) (UniProt P08492, species not given/STRAIN_C243); assay: Haemagglutination inhibition assay, hPIV-3 C243; assay type: biochemical, hPIV-3 (strain C-243); settings: 1% human red blood cells
Sequence of hPIV-3 C243 HN (haemagglutination function) (P08492 whole entry, change not shown): as above

[4] = target: hPIV-1 C35 HN (neuraminidase function) (Human parainfluenza 1 virus, UniProt P16071); assay: Neuraminidase inhibition assay (MUN), hPIV-1 C35; assay type: biochemical, hPIV-1 (strain C-35)
Sequence of hPIV-1 C35 HN (neuraminidase function) (P16071 whole entry): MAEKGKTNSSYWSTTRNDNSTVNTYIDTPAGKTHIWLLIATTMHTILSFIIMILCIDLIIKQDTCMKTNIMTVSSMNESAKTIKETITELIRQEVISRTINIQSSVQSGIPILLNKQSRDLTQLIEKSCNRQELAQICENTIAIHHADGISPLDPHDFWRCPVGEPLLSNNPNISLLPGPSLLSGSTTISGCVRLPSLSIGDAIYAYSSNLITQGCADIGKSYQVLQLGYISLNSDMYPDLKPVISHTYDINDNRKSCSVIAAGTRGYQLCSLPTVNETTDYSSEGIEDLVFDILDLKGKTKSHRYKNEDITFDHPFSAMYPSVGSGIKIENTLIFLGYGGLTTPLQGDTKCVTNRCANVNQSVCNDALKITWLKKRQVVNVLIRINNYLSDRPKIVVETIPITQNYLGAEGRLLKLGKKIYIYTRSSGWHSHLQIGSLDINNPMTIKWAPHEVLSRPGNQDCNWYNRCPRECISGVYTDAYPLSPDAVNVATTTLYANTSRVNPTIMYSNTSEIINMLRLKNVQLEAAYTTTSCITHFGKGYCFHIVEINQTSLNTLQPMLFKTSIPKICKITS

hPIV-3 CI002 = assay: In situ ELISA virus growth inhibition, hPIV-3 CI002; assay type: cell-based; settings: Human respirovirus 3, in Macaca mulatta, LLC-MK2 cells, 36-40 h, read-out: Viral Growth IC50 (converted)
hPIV-3 C243 = assay: In situ ELISA virus growth inhibition, hPIV-3 C243; assay type: cell-based, hPIV-3 (strain C243) in LLC-MK2 cells (Rhesus monkey kidney); settings: read-out: Viral Growth IC50
[5] = target: hPIV-3 CI002 HN (haemagglutination function) (UniProt P08492, species not given/STRAIN_CI002); assay: Haemagglutination inhibition assay, hPIV-3 CI002; assay type: biochemical, hPIV-3 (strain CI002, clinical isolate); settings: 1% human red blood cells
Sequence of hPIV-3 CI002 HN (haemagglutination function) (P08492 whole entry, change not shown): as the sequence (P08492 whole entry, change not shown) above

[6] = target: hPIV-1 C35 HN (haemagglutination function) (Human parainfluenza 1 virus, UniProt P16071); assay: Haemagglutination inhibition assay, hPIV-1 C35; assay type: biochemical, hPIV-1 (strain C-35)
Sequence of hPIV-1 C35 HN (haemagglutination function) (P16071 whole entry): as the sequence (P16071 whole entry) above

[7] = Human respirovirus 3, in Macaca mulatta, hPIV-3 C243, LLC-MK2 cells, in situ ELISA, 36-40 h
[8] = Human respirovirus 3, LLC-MK2, in Macaca mulatta

Sequence of hPIV-3 C243 HN (neuraminidase function) (P08492 whole entry, change not shown): as the sequence (P08492 whole entry, change not shown) above

SMILES | IC50 [1] | IC50 [2] | IC50 [3] | IC50 [4] | IC50 (hPIV-3 CI002) | IC50 (hPIV-3 C243; [7]) | IC50 [5] | IC50 [6] | IC50 (hPIV-3 C243; [8])
CC(C)C(=O)N[C@H]1[C@H]([C@H](O)[C@H](O)CO)OC(C(=O)O)=C[C@@H]1n1nnc2ccc3[nH]ccc3c21 (single isomer, unassigned) [IE1963-113a] | 17 ± 0.764 µM | 34.9 µM | 36.7 µM | 6.33 µM | 42.6 µM | 111 ± 9.29 µM |  |  | 
O=C(O)C1=C[C@H](n2cc3ncccc3n2)[C@@H](NC(=O)C(F)(F)F)[C@H]([C@H](O)[C@H](O)CO)O1 [JC2001-49, 2,6-Anhydro-3,4,5-trideoxy-5-(2,2,2-trifluoroacetamido)-4-(2H-pyrazolo[4,3-b]pyridin-2-yl)-D-glycero-D-galacto-non-2-enonic Acid] | 8.33 ± 1.24 µM | 15.1 µM | 13.1 µM | 23.2 µM | 11.5 µM |  | 4.94 µM | 14.8 µM | 26.9 µM
CC(C)C(=O)N[C@H]1[C@H]([C@H](O)[C@H](O)CO)OC(C(=O)O)=C[C@@H]1n1cc2cc(F)sc2c1C#N [RE1993-40] | 1.14 ± 0.021 µM | 2.71 µM | 0.735 ± 0.259 µM | 5.41 µM | 3.96 µM | 3.22 ± 0.726 µM | 0.82 µM | 22.2 µM | 
O=C(O)C1=C[C@H](n2cc3ccc4cccnc4c3n2)[C@@H](NC(=O)C(F)(F)F)[C@H]([C@H](O)[C@H](O)CO)O1 [RP1967-89, 2,6-Anhydro-3,4,5-trideoxy-5-(2,2,2-trifluoroacetamida)-4-(2H-pyrazolo[4,3-h]quinolin-2-yl)-D-glycero-D-galacto-non-2-enonic Acid] | 5.52 ± 0.983 µM | 19.9 µM | 3 µM | 88.9 µM | 5 µM |  | 4.94 µM | > 200 µM | 9.67 µM
O=C(O)C1=C[C@H](n2cc3ccncc3n2)[C@@H](NC(=O)C(F)(F)F)[C@H]([C@H](O)[C@H](O)CO)O1 [JC2001-48, 2,6-Anhydro-3,4,5-trideoxy-5-(2,2,2-trifluoroacetamido)-4-(2H-pyrazolo[3,4-c]pyridin-2-yl)-D-glycero-D-galacto-non-2-enonic Acid] | 21.5 µM | 29.2 µM | 13.1 µM | 1.71 µM | 8.48 µM |  | 4.94 µM | 0.27 µM | 54.5 ± 16.1 µM
CC(C)C(=O)N[C@H]1[C@H]([C@H](O)[C@H](O)CO)OC(C(=O)O)=C[C@@H]1n1nnc2c3cc[nH]c3ccc21 (single isomer, unassigned) [IE1963-113b] | 5.14 ± 0.777 µM | 17.1 µM | 3 µM | 8.4 µM | 8.7 µM | 24.4 ± 3.35 µM |  |  | 
